The subject of test [1] is stationary phase E. coli. In words: Bactericidal activity against stationary phase E. coli (CFU counts). The class given is cell-based, Escherichia coli. As to conditions: for log reduction at 6.25 µg/mL / log reduction at 12.5 µg/mL / log reduction at 25 µg/mL: Escherichia coli, read-out: Log kill. The method, then:
(§1) Escherichia coli K12; Gram negative; Reference strain.
(§2) Bacteria were grown in 10 ml of nutrient broth (No. 2 (Oxoid)) overnight at 37° C., with continuous shaking at 120 rpm. The overnight cultures were diluted (1000×) in 100 ml of growth medium and then incubated without shaking for 10 days. Viability of the bacteria was estimated by colony forming unit (CFU) counts at 2 hour intervals at the first 24 hours and at 12-24 hours afterwards. From serial 10-fold dilutions of the experimental cultures, 100 μl samples were added to triplicate plates of nutrient agar plates (Oxoid) and blood agar plates (Oxoid). Colony forming units (CFU) were counted after incubation of the plates at 37° C. for 24 hours.
(§3) Cultures incubated for more than 24 hours are in the stationary phase. For drug screening, 5-6 day old stationary phase cultures were used.
(§4) Different concentrations of each test compound were incubated with stationary phase cultures (5-6 day cultures) in 96 well plates for 24 or 48 hours. Bactericidal activity was then determined by taking CFU counts of the resulting cultures, as described above.

For test [2], the system named is log phase E. coli. In words: MIC against log phase E. coli. The format is cell-based, Escherichia coli. The method, then:
as §1
(§5) The above-described overnight cultures were diluted (1000×) with iso-sensitest broth. The cultures were then incubated at 37° C. with shaking for 1-2 hours to reach log CFU 6, which served as log phase cultures.
(§6) The bactericidal activity of the drugs against log phase cultures were determined by minimal inhibitory concentration (MIC) of the drugs, which is defined as the lowest concentration which inhibits visible growth. Different concentrations of each test compound were incubated with the log-phase cultures in 96 well plates for 24 hours. Bactericidal activity was then examined by taking a spectrophotometer reading (using a plate reader) at 405 nm.

The test system of test [3] is log phase E. coli. In words: Chequerboard analysis with polymyxin E against log phase E. coli. The format is cell-based, Escherichia coli. The following applies: for MIC: Escherichia coli. The method, then:
as §1, §5, §6

Test [4] deals with stationary phase S. aureus. In words: Bactericidal activity against stationary phase S. aureus (CFU counts). As to conditions: Staphylococcus aureus, read-out: Log Kill; for log reduction at 6.25 µg/mL: 6.25 μg/ml; for log reduction at 12.5 µg/mL: 12.5 μg/ml; for log reduction at 25 µg/mL: 25 μg/ml. The format is cell-based, Staphylococcus aureus. The method, then: Staphylococcus aureus (Oxford strain); Gram positive; Reference strain.
as §2, §3, §4

Test [5] concerns NDM-1 Klebsiella pneumoniae. In words: Chequerboard analysis with colistin against NDM-1 Klebsiella pneumoniae. The format is cell-based.
The mark [6] stands for this setting: Escherichia coli, read-out: MIC.

“And” between values parts separate entries of the source, which are not always exact repeats. Equal values may be shown once. Where a name gives a salt, the structure may show the parent alone.

Turning to `CCCCCCc1ccc(O)cc1O.Nc1c2ccccc2nc2ccccc12` [Acrisorcin], the Log Kill in test [1] (6.25 μg/ml), in test [1] (12.50 μg/ml) and in test [1] (25.00 μg/ml) was 6.14 each time. For the same compound, the minimum inhibitory concentration (MIC) result in test [2] is listed as “— (— signifies MIC higher than 50 μg/ml)”.
Consider `COc1cccc2c1C(=O)c1c(O)c3c(c(O)c1C2=O)C[C@@](O)(C(=O)CO)C[C@@H]3O[C@H]1C[C@H](N)[C@H](O)[C@H](C)O1` [Doxorubicin], for which the log reduction at 6.25 µg/mL in test [1] (6.25 μg/ml) is 6.14. For the same compound, the log reduction at 12.5 µg/mL in test [1] (12.50 μg/ml) is 6.14. For the same compound, the log reduction at 25 µg/mL in test [1] (25.00 μg/ml) turned out to be 6.14. For the same compound, in test [2] (setting [6]), the MIC is greater than 50 mg/L.
As to `CC(COc1ccccc1)N(CCCl)Cc1ccccc1` (centres unmarked) [HT00800157, Phenoxybenzamine Hydrochloride], the MIC in test [3] (alone) was greater than 64 mg/L; in test [3] (in combination with polymyxin E at 0.06 μg/ml), 64 mg/L; in test [3] (in combination with polymyxin E at 0.25 μg/ml) it was 1 mg/L. Besides, the spectrophotometer reading is 1.52 in test [3] (HT00800157 1 μg/ml alone); 1.53 in test [3] (HT00800157 2 μg/ml alone); 1.60 in test [3] (HT00800157 4 μg/ml alone); 1.56 in test [3] (HT00800157 8 μg/ml alone); 1.56 in test [3] (HT00800157 16 μg/ml alone); 1.57 in test [3] (HT00800157 32 μg/ml alone). In addition, the spectrophotometer reading in test [3] (HT00800157 64 μg/ml alone) was 1.60.
Turning to `Oc1ccc(O)cc1` [Hydroquinone], the log reduction at 6.25 µg/mL worked out at 6.15 in test [4] and 6.14 in test [1] (6.25 μg/ml). In addition, the log reduction at 12.5 µg/mL in test [4] turned out to be 6.15; in test [1] (12.50 μg/ml) it was 6.14. Also, the log reduction at 25 µg/mL in test [4] is 6.15; in test [1] (25.00 μg/ml) it was 6.14. Besides, in test [2] (setting [6]), the MIC was greater than 50 mg/L.
In the case of `COC(=O)C1=C(C)NC(C)=C(C(=O)OCC(C)C)C1c1ccccc1[N+](=O)[O-]` (centres unmarked) [Nisoldipine], in test [4], the log reduction at 6.25 µg/mL amounted to 0, the log reduction at 12.5 µg/mL is 6.15 and the log reduction at 25 µg/mL came out at 6.15. Also, the MIC in test [2] (setting [6]) is greater than 50 mg/L.
On to `CCN(CC)CCCC(C)Nc1c2ccc(Cl)cc2nc2ccc(OC)cc12` (centres unmarked) [Quinacrine hydrochloride], for which the log reduction at 6.25 µg/mL in test [1] (6.25 μg/ml) stood at 1.27. For the same compound, in test [1] (12.50 μg/ml), the log reduction at 12.5 µg/mL was determined as 2.14. For the same compound, in test [1] (25.00 μg/ml), the log reduction at 25 µg/mL came out at 6.14. In test [2] (setting [6]), the MIC was greater than 50 mg/L.
Consider `Clc1ccc(C(Cn2ccnc2)OCc2ccsc2Cl)c(Cl)c1` (centres unmarked) [Tioconazole], for which, in test [4], the log reduction at 6.25 µg/mL amounted to 0, the log reduction at 12.5 µg/mL came to 6.15 and the log reduction at 25 µg/mL turned out to be 6.15.
For `CN(C)CCOc1ccc(/C(=C(/CCCl)c2ccccc2)c2ccccc2)cc1` [Toremifene citrate], in test [4], the log reduction at 6.25 µg/mL is 6.15, the log reduction at 12.5 µg/mL was 6.15 and the log reduction at 25 µg/mL was 6.15.
Regarding `CN1CCN(CCCN2c3ccccc3Sc3ccc(C(F)(F)F)cc32)CC1` [Trifluoperazine hydrochloride], the results for the log reduction at 6.25 µg/mL in test [4] and in test [1] (6.25 μg/ml) were 0 and -0.12, respectively. Further, the log reduction at 12.5 µg/mL in test [4] was found to be 2.22; in test [1] (12.50 μg/ml), 6.14. Besides, the log reduction at 25 µg/mL in test [4] stood at 6.03; in test [1] (25.00 μg/ml) it was 6.14. Besides, the MIC in test [2] (setting [6]) was found to be 20 mg/L. For the same compound, the spectrophotometer reading amounted to 0.96 in test [5] (trifluoperazine hydrochloride 0.25 mg/L alone); 0.95 in test [5] (trifluoperazine hydrochloride 0.5 mg/L alone); 0.94 in test [5] (trifluoperazine hydrochloride 1 mg/L alone); 0.96 in test [5] (trifluoperazine hydrochloride 2 mg/L alone); 0.95 in test [5] (trifluoperazine hydrochloride 4 mg/L alone); 0.97 in test [5] (trifluoperazine hydrochloride 8 mg/L alone). Moreover, the spectrophotometer reading in test [5] (trifluoperazine hydrochloride 16 mg/L alone) is 0.98; in test [5] (trifluoperazine hydrochloride 32 mg/L alone) it was 0.95; in test [5] (trifluoperazine hydrochloride 64 mg/L alone), 0.77; in test [5] (trifluoperazine hydrochloride 128 mg/L alone), 0.87; in test [5] (trifluoperazine hydrochloride 256 mg/L alone), 1.33.
As for Polymyxin E (Colistin), the spectrophotometer reading in test [3] (polymyxin E 0.0019 μg/ml alone) was 1.53; in test [3] (polymyxin E 0.0039 μg/ml alone) it was 1.55; in test [3] (polymyxin E 0.0078 μg/ml alone) it was 1.55; in test [3] (polymyxin E 0.015625 μg/ml alone) it was 1.53; in test [3] (polymyxin E 0.03125 μg/ml alone), 1.42; in test [3] (polymyxin E 0.0625 μg/ml alone), 1.52. For the same compound, the spectrophotometer reading in test [3] (polymyxin E 0.125 μg/ml alone) is given as 1.48; in test [3] (polymyxin E 0.25 μg/ml alone) it was 1.25; in test [3] (polymyxin E 0.5 μg/ml alone) it was 0.49; in test [3] (polymyxin E 1 μg/ml alone) it was 0.49; in test [3] (polymyxin E 2 μg/ml alone) it was 0.50; in test [5] (colistin 0.5 mg/L alone, Table 6), 1.08. Further, the spectrophotometer reading is on record as 0.98 in test [5] (colistin 0.5 mg/L alone, Table 7); 0.94 in test [5] (colistin 0.5 mg/L alone, Table 8); 1.12 in test [5] (colistin 0.5 mg/L alone, Table 9); 1.14 in test [5] (colistin 0.5 mg/L alone, Table 10); 0.96 in test [5] (colistin 0.5 mg/L alone, Table 11); 1.03 in test [5] (colistin 1 mg/L alone, Table 6). The spectrophotometer reading in test [5] (colistin 1 mg/L alone, Table 7) was 1.02; in test [5] (colistin 1 mg/L alone, Table 8) it was 0.94; in test [5] (colistin 1 mg/L alone, Table 9) it was 1.13; in test [5] (colistin 1 mg/L alone, Table 10), 1.12; in test [5] (colistin 1 mg/L alone, Table 11), 0.93; in test [5] (colistin 2 mg/L alone, Table 6) it was 1.05. Besides, the spectrophotometer reading in test [5] (colistin 2 mg/L alone, Table 7) stood at 0.95; in test [5] (colistin 2 mg/L alone, Table 8), 0.87; in test [5] (colistin 2 mg/L alone, Table 9), 1.07; in test [5] (colistin 2 mg/L alone, Table 10), 1.09; in test [5] (colistin 2 mg/L alone, Table 11) it was 0.91; in test [5] (colistin 4 mg/L alone, Table 6), 0.34. Moreover, the spectrophotometer reading in test [5] (colistin 4 mg/L alone, Table 7) was 0.87; in test [5] (colistin 4 mg/L alone, Table 8), 0.54; in test [5] (colistin 4 mg/L alone, Table 9), 0.80; in test [5] (colistin 4 mg/L alone, Table 10), 0.89; in test [5] (colistin 4 mg/L alone, Table 11), 0.90; in test [5] (colistin 8 mg/L alone, Table 6), 0.82. Further, the spectrophotometer reading in test [5] (colistin 8 mg/L alone, Table 7) was determined as 0.44; in test [5] (colistin 8 mg/L alone, Table 8), 0.57; in test [5] (colistin 8 mg/L alone, Table 9), 0.68; in test [5] (colistin 8 mg/L alone, Table 10), 0.63; in test [5] (colistin 8 mg/L alone, Table 11), 0.53; in test [5] (colistin 16 mg/L alone, Table 6), 0.78. Moreover, the spectrophotometer reading in test [5] (colistin 16 mg/L alone, Table 7) turned out to be 0.53; in test [5] (colistin 16 mg/L alone, Table 8) it was 0.39; in test [5] (colistin 16 mg/L alone, Table 9), 0.40; in test [5] (colistin 16 mg/L alone, Table 10) it was 0.69; in test [5] (colistin 16 mg/L alone, Table 11) it was 0.48; in test [5] (colistin 32 mg/L alone, Table 6) it was 0.33. In addition, the spectrophotometer reading amounted to 0.36 in test [5] (colistin 32 mg/L alone, Table 7); 0.41 in test [5] (colistin 32 mg/L alone, Table 8); 0.39 in test [5] (colistin 32 mg/L alone, Table 9); 0.40 in test [5] (colistin 32 mg/L alone, Table 10); 0.41 in test [5] (colistin 32 mg/L alone, Table 11). In addition, the “Colistin MIC” value in test [5] (colistin alone) is 32 mg/L and 16 mg/L; in test [5] (combined with 32 mg/L of suloctidil), 1 mg/L; in test [5] (combined with 64 mg/L of mefloquine), 0.5 mg/L.

One may read the MIC as the least concentration at which growth counts as inhibited.
